# Source: patent US20030119812A1, “Method for decreasing capillary permeability in the retina” (priority 2001, published 2003)
# System: BRB breakdown in mice exposed to vascular endothelial growth factor (VEGF)
# Assay: BRB breakdown quantitated with [3H]-mannitol tracer in mice given intravitreal VEGF
# Assay type: in vivo, C57B/J6 mice
# From the text: Intraperitoneally administered radiolabeled tracer can be used to quantitate BRB breakdown in mice exposed to vascular endothelial growth factor (VEGF). This technique is particularly advantageous with neonatal mice because of the technical difficulty involved with intravascular injections. Also, the comparison of retinas from injected and control eyes to tissues without a blood-tissue barrier corrects for variations in the amount of isotope injected or absorbed into the circulation.
# Ten six- to seven-week-old C57B/J6 mice (Jackson Labs, Bar Harbor, Me.) are weighed to determine the proper dosage of anesthesia and tracer required. Mice are anesthetized with a solution containing 25 mg/kg ketamine (Ketaset; Fort Dodge Animal Health, Fort Dodge, Iowa) and 4 mg/kg rompun (Tranquived; Vedco, St. Joseph, Mo.) diluted 1:10 in saline prior to injection. Five mice are subjected to gavage with 50 mg/kg N-benzoyl staurosporine for three days prior to intravitreal administration of VEGF; the other five mice are subjected to gavage with vehicle.
# Tropicamide (1%) is used to dilate the pupils of anesthetized mice. Under a dissecting microscope, a Harvard injector (PLI 100) is used with a glass pipet pulled to a diameter of 13-20 μm to inject 1 μl of saline containing VEGF (R&D Systems, Minneapolis, Minn.). The eyes are entered posterior to the limbus, directing the pipet toward the optic nerve. The solution is then deposited just in front of the retina without inflicting any damage to the lens. […]
# One ml NCSII (Amersham, Chicago, Ill.) solubilizing solution is added to each vial and the vials are incubated overnight in a 50° C. water bath. […] The specimens are counted on a Wallac 1409 Liquid Scintillation Counter (Gaithersburg, :Md.).
# The counts per mg tissue are determined for treated (with N-benzoyl staurosporine) and untreated retina, lung, and kidney. Ratios of these values for treated or untreated retina/lung or kidney and for lung/kidney are calculated. […]
smiles,measurement,setting,value
CO[C@@H]1[C@H](N(C)C(=O)c2ccccc2)C[C@H]2O[C@]1(C)n1c3ccccc3c3c4c(c5c6ccccc6n2c5c31)C(=O)NC4 [N-benzoyl staurosporine],radioactivity in the retinas (leakage of radioactive tracer out of the retinal blood vessels),"50 mg/kg N-benzoyl staurosporine by gavage versus vehicle gavage, before intravitreal VEGF",significantly less radioactivity
same,retina/kidney ratio,"50 mg/kg by gavage for three days before intravitreal VEGF 10^-6 M, [3H]-mannitol at 6 hours, VEGF/vehicle 0.6806±0.1060, Student-t value 0.0201",0.3881±0.0436
same,retina/lung ratio (cpm per mg of retina/cpm per mg of lung),"50 mg/kg by gavage for three days before intravitreal VEGF 10^-6 M, [3H]-mannitol at 6 hours, VEGF/vehicle 0.8785±0.0946, Student-t value 0.0467",0.6326±0.0656
